For 22 compounds, Activity results are on record in ChEMBL document CHEMBL1157877, “Design, synthesis and biological evaluation of new ionone derivatives as potential neuroprotective agents in cerebral ischemia” (2010).

Each structure is given as a SMILES string.

Type in all cases: functional
In assay [1] the test system is Neuron. Kind of assay: Neuroprotective effect against H202-induced Sprague-Dawley rat neuron injury assessed as viable cells by annexin V-propidium iodide staining by flow cytometry (reference value: 93.66%+/-2.19%).
Assay [2] relates to Neuron. Put plainly: Neuroprotective effect against H202-induced Sprague-Dawley rat neuron injury assessed as late apoptic cells by annexin V-propidium iodide staining by flow cytometry (Rvb= 2.22%+/-0.70%).
Assay [3] deals with Neuron. Put plainly: Neuroprotective effect against H202-induced Sprague-Dawley rat neuron injury assessed as necrotic cells by annexin V-propidium iodide staining by flow cytometry (reference value: 1.02% +/-0.4%).
Assay [4] concerns Neuron. Kind of assay: Neuroprotective effect against H202-induced Sprague-Dawley rat neuron injury assessed as apoptic cells by annexin V-propidium iodide staining by flow cytometry. Further details: concentration or dose not given beside the values.
Assay [5] has as its system Neuron. Kind of assay: Neuroprotective effect against H202-induced Sprague-Dawley rat neuron injury assessed as early apoptic cells by annexin V-propidium iodide staining by flow cytometry (reference value: 3.09% +/- 1.40%).
For assay [6], the system named is Neuron. Kind of assay: Neuroprotective effect against H202-induced Sprague-Dawley rat neuron injury assessed as cell viability by annexin V-propidium iodide staining by flow cytometry.

Regarding `CC1=CCCC(C)(C)C1/C=C/C(C)(O)c1ccc(C(F)(F)F)cc1` (stereo unspecified), the Activity stood at 5.09% in the assay with Neuron [1]; 22.23% with Neuron [2]; 0.057% with Neuron [3]; 72.6% with Neuron [4]; 72.6% with Neuron [5].
As for `CC1=CCCC(C)(C)C1/C=C/C(C)(O)c1ccc(C(C)(C)C)cc1` (stereo unspecified), the Activity in the assay on Neuron [1] came out at 7.36%; in the assay on Neuron [2] it was 30.4%; in the assay with Neuron [3], 0.05%; in the assay on Neuron [4] it was 62.1%; in the assay on Neuron [5], 62.1%.
`COc1ccc(C(C)(O)/C=C/C2C(C)=CCCC2(C)C)cc1OC` (stereo unspecified): the Activity is 3.9% with Neuron [1]; 38.5% in the assay on Neuron [2]; 0.065% with Neuron [3]; 57.36% in the assay on Neuron [4]; 57.36% in the assay on Neuron [5].
Turning to `CC1=CCCC(C)(C)C1/C=C/C(C)(O)c1ccsc1` (stereo unspecified), the Activity in the assay with Neuron [1] was found to be 6.8%; in the assay with Neuron [2] it was 42.09%; in the assay with Neuron [3], 0.025%; in the assay with Neuron [4] it was 50.9%; with Neuron [5], 50.9%.
As to `CSc1ccc(C(C)(O)/C=C/C2C(C)=CCCC2(C)C)cc1` (stereo unspecified), the Activity in the assay on Neuron [1] was 33.43%; in the assay on Neuron [2], 15.43%; in the assay on Neuron [3], 0.58%; in the assay on Neuron [5], 50.55%.
The matching figures for `COc1ccccc1C(C)(O)/C=C/C1C(C)=CCCC1(C)C` (stereo unspecified): 44.4%, 15.2%, 0.42% and 39.8%.
On the same counts, the results for `CCCOc1ccc(C(C)(O)/C=C/C2C(C)=CCCC2(C)C)cc1` (stereo unspecified) are 91.9%, 0.7%, 3% and 4.31%.
`CCOc1ccc(C(C)(O)/C=C/C2C(C)=CCCC2(C)C)cc1` (stereo unspecified): the Activity with Neuron [1] stood at 50.8%; in the assay on Neuron [2], 16.3%; with Neuron [3], 1.32%; in the assay with Neuron [5], 31.4%.
For the compound `COc1ccc(C(C)(O)/C=C/C2=C(C)CCCC2(C)C)cc1` (stereo unspecified), the Activity was determined as 75.25% in the assay on Neuron [1]; 75.25% in the assay on Neuron [6]; 9.06% with Neuron [2]; 3.42% in the assay on Neuron [3]; 12.2% with Neuron [5].
Regarding `COc1cccc(C(C)(O)/C=C/C2=C(C)CCCC2(C)C)c1` (stereo unspecified), the Activity with Neuron [1] was found to be 82.3%; with Neuron [2], 5.35%; in the assay on Neuron [3] it was 7.39%; in the assay on Neuron [5] it was 4.95%.
Consider `CC1=CCCC(C)(C)C1/C=C/C(C)(O)c1cc(C)ccc1C` (stereo unspecified), for which the Activity in the assay with Neuron [1] is recorded as 6.4%; in the assay with Neuron [2], 38.3%; with Neuron [3] it was 0.045%; with Neuron [4], 55.1%; in the assay with Neuron [5] it was 55.1%.
Regarding `COc1ccc(C(C)(O)/C=C/C2C(C)=CCCC2(C)C)cc1` (stereo unspecified), the Activity in the assay with Neuron [1] came to 37.75%; in the assay with Neuron [2] it was 19.72%; in the assay on Neuron [3], 1.14%; with Neuron [5], 41.37%.
The matching figures for `CCCCCOc1ccc(C(C)(O)/C=C/C2C(C)=CCCC2(C)C)cc1` (stereo unspecified): 60.91%, 12.7%, 0.61% and 25.77%.
As to `CSc1ccc(C(C)(O)/C=C/C2=C(C)CCCC2(C)C)cc1` (stereo unspecified), the Activity is 66.4% with Neuron [1], 2.5% with Neuron [2], 0.21% in the assay on Neuron [3] and 30.89% in the assay with Neuron [5].
The matching figures for `CCCCCOc1ccc(C(C)(O)/C=C/C2=C(C)CCCC2(C)C)cc1` (stereo unspecified): 69.25%, 4.02%, 0.26% and 26.48%.
Turning to `CCCOc1ccc(C(C)(O)/C=C/C2=C(C)CCCC2(C)C)cc1` (stereo unspecified), the Activity stood at 29% with Neuron [1], 16.6% in the assay with Neuron [2], 0.52% in the assay with Neuron [3] and 53.84% in the assay on Neuron [5].
Turning to `CCOc1ccc(C(C)(O)/C=C/C2=C(C)CCCC2(C)C)cc1` (stereo unspecified), the Activity is given as 33.1% in the assay with Neuron [1], 15.62% in the assay on Neuron [2], 0.93% in the assay on Neuron [3] and 50.34% in the assay on Neuron [5].
Take `COc1cccc(C(C)(O)/C=C/C2C(C)=CCCC2(C)C)c1` (stereo unspecified): the Activity in the assay on Neuron [1] is given as 61.7%; with Neuron [6], 61.7%; in the assay on Neuron [2], 9.4%; in the assay on Neuron [3], 3.89%; in the assay on Neuron [5] it was 25.02%.
As to `CC1=CCCC(C)(C)C1/C=C/C(C)(O)c1ccccc1` (stereo unspecified), the Activity is recorded as 6.5% in the assay with Neuron [1]; 30.47% with Neuron [2]; 0.05% in the assay on Neuron [3]; 62.9% in the assay on Neuron [4]; 62.9% in the assay with Neuron [5].
Regarding `COc1ccccc1C(C)(O)/C=C/C1=C(C)CCCC1(C)C` (stereo unspecified), the Activity in the assay on Neuron [1] amounted to 19%; in the assay with Neuron [2] it was 14.5%; with Neuron [3], 0.32%; with Neuron [5], 66.1%.
On the same counts, the results for `COc1cc(/C=C/C(=O)CC(=O)/C=C/c2ccc(O)c(OC)c2)ccc1O` [CURCUMIN] are 79.9%, 7.3%, 1.89% and 24.15%.
The matching figures for `C[C@]12N[C@H](Cc3ccccc31)c1ccccc12.O=C(O)/C=C\C(=O)O` [DIZOCILPINE MALEATE]: 82.45%, 1.56%, 1.96% and 14.9%.
